Values of other authors, collected in patent US20090029375A1, “GENETIC MODELS FOR STRATIFICATION OF CANCER RISK” (Intergenetics, Inc., priority 2007, published 2009).

Key:
breast cancer = conditions: osteoporosis prevention/treatment study
estrogen receptors = conditions: preclinical data, uterine and breast tissues
[1] = test system: rat mammary carcinoma induced by dimethylbenzanthracene (DMBA)

SMILES	effect on incidence of breast cancer (breast cancer)	estrogen antagonism (estrogen receptors)	induction of rat mammary carcinoma [1]
O=C(c1ccc(OCCN2CCCCC2)cc1)c1c(-c2ccc(O)cc2)sc2cc(O)ccc12 [raloxifene]	reduce the incidence of breast cancer	estrogen antagonist	
CC/C(=C(\c1ccccc1)c1ccc(OCCN(C)C)cc1)c1ccccc1 [tamoxifen]			inhibits the induction
